Patent US5869494A, “Uses for barbituric acid analogs” (priority 1997, dated 1999)
Entries after “also recorded” stand apart in the source; their conditions may differ.

Tests used:
[1] = test system: DU-145 human prostate tumors; assay: Human DU-145 prostate tumors transplanted into athymic mice, oral treatment; format: in vivo, athymic BALB/c nude-nu mice; settings: 400 mg/kg oral
Description: Male athymic BALB/c nude-nu mice (6-8 weeks old, 18-22 g each) were purchased from Harlan Sprague-Dawley, Inc. (Indianapolis, Ind.) and maintained in a germ-free environment. The mice had free access to sterile food and water. Human prostate DU-145 cells (1×10^7) were transplanted subcutaneously into athymic mice. Solid tumors appearing after 30 days were cut into small pieces (2-2 mm) and transplanted into native mice. […] The treatment schedule consisted of a single dose on alternate days. The control group of animals (3 mice) received vehicle only. […] At this point, the treatment was terminated and animals were kept under observation for the regrowth of prostate tumors.
formula % TGI = 100(1Vt /Vc), where Vt and Vc are the […]

[2] = test system: Herpes simplex virus (HSV); assay: Inactivation of Herpes simplex virus (plaque assay on Vero cells); format: cell-based; settings: for PFU/ml: control 7.1 × 10^5
Experimental: The control sample received vehicle only. After the incubation period, samples were serially diluted and 0.1 ml of each dilution and the undiluted samples were inoculated into monolayers of Vero cells (African green monkey kidney cells). Overlay medium was added and the monolayers were incubated at 37° C. After 3 days of incubation, the overlay medium was removed, and the monolayer cells were fixed with methanol and treated with Giemsa stain.

[3] = test system: MT-4 cells; assay: Toxicity to MT-4 cells; format: cell-based, human; settings: drug doses of the HIV-1 test (75-125 μg/ml)
Experimental: After 2 h at 37° C., treated and control HIV-1 samples were added to the indicator MT-4 cells (cultured human T cells) in the presence of 2 μg/ml POLYBRENE™ for 2 h. After washing, MT-4 cells were cultured in the presence of drug-treated or control (untreated) HIV-1. Cell viability of MT-4 cells was determined by the trypan blue dye exclusion method.

[4] = test system: T cells; assay: Modulation of T cells in HIV-1 positive subjects; format: in vivo, human; settings: 4.3 mg/kg for 15 days; one subject; before treatment 425; normal range 650-1330
Description: Blood samples were drawn before and after on day 15 or 30 from the initiation of treatment for regular CBC profile. […] The normal range of T cells is 650-1330.

[5] = test system: 786-0; assay: NCI tumor cell line screen (SRB assay); format: cell-based; parameters: activity: dose or concentration left out as unconfirmed; settings: Homo sapiens, read-out: PERCENT GROWTH
Experimental: (§1) The National Cancer Institute carried out the studies at the direction of the present inventor.
(§2) In the tests, the National Cancer Institute used the SRB (sulforhodamine B) assay as described by Skehan et al., (Journal of the National Cancer Institute, 82:13, Jul. 4, 1990, 1107-1112). Briefly, the assay is as follows. TCA-fixed cells were stained for 30 minutes with 0.4% (wt/vol) SRB dissolved in 1% acetic acid. At the end of the staining period, SRB was removed and cultures were quickly rinsed four times with 1% acetic acid to remove unbound dye. The acetic acid was poured directly into the culture wells from a beaker. […] Residual wash solution was removed by sharply flicking plates over a sink, which ensured the complete removal of rinsing solution. […] After being rinsed, the cultures were air dried until no standing moisture was visible. Bound dye was solubilized with 10 mM unbuffered Tris base (pH 10.5) for 5 minutes on a gyratory shaker.
(§3) Optical density (OD) was read in either a UVmax microtiter plate reader (Molecular Devices, Menlo Park, Calif.) or a Beckman DU-70 spectrophotometer. For maximum sensitivity, OD was measured at 564 nm. Because readings were linear with dye concentrations only below 1.8 OD units, however, suboptimal wavelengths were generally used, so that all samples in an experiment remained within the linear OD range. With most cell lines, wavelengths of approximately 490-530 nm worked well for this purpose.
(§4) Nine different non-small cell lung carcinoma cell lines, six different colon carcinoma cell lines, six different CNS (central nervous system) carcinoma cell lines, seven different melanoma cell lines, six different ovarian carcinoma cell lines, and eight different renal carcinoma cell lines were tested.

[6] = test system: LOX IMVI; assay: NCI tumor cell line screen (SRB assay); format: cell-based; parameters: activity: dose or concentration left out as unconfirmed; settings: Homo sapiens, read-out: PERCENT GROWTH
Experimental: as §1, §2, §3, §4

[7] = test system: OVCAR-4; assay: NCI tumor cell line screen (SRB assay); format: cell-based; parameters: activity: dose or concentration left out as unconfirmed; settings: Homo sapiens, read-out: PERCENT GROWTH
Experimental: as §1, §2, §3, §4

[8] = test system: OVCAR-5; assay: NCI tumor cell line screen (SRB assay); format: cell-based; parameters: activity: dose or concentration left out as unconfirmed; settings: Homo sapiens, read-out: PERCENT GROWTH
Experimental: as §1, §2, §3, §4

[9] = test system: SK-MEL-28; assay: NCI tumor cell line screen (SRB assay); format: cell-based; parameters: activity: dose or concentration left out as unconfirmed; settings: Homo sapiens, read-out: PERCENT GROWTH
Experimental: as §1, §2, §3, §4

[10] = test system: SNB-75; assay: NCI tumor cell line screen (SRB assay); format: cell-based; parameters: activity: dose or concentration left out as unconfirmed; settings: Homo sapiens, read-out: PERCENT GROWTH
Experimental: as §1, §2, §3, §4

[11] = test system: HCT-15; assay: NCI tumor cell line screen (SRB assay); format: cell-based; settings: Homo sapiens, read-out: PERCENT GROWTH
Experimental: as §1, §2, §3, §4

[12] = test system: MALME-3M; assay: NCI tumor cell line screen (SRB assay); format: cell-based; settings: Homo sapiens, read-out: PERCENT GROWTH
Experimental: as §1, §2, §3, §4

[13] = test system: NCI-H322M; assay: NCI tumor cell line screen (SRB assay); format: cell-based; settings: Homo sapiens, read-out: PERCENT GROWTH
Experimental: as §1, §2, §3, §4

[14] = Vero, 150 μg/ml, 24 h at 37° C.

For `CCCCN1C(=O)CC(=O)N(CCCC)C1=S` [Compound C1, 4,6(1H, 5H)-pyrimidinedione, 1,3-dibutyldihydro-2-thioxo], the regrowth of tumors ([1]; 5 months posttreatment) was “no signs of tumor regrowth; also recorded: regrowth of treated tumors did not occur for a period of 5 months”, the palpable prostate tumors ([1]; after 18 doses) was “palpable prostate tumors in the treated group could not be detected; also recorded: palpable tumors were not detectable in treated animals” and the “% TGI (percent tumor growth inhibition)” value ([1]; alternate days, 18 doses) was 99.0%. The “side effects such as weight loss, diarrhea, lethargy or discomfort” value ([1]; alternate days, 18 doses) was “not observed; also recorded: No observable side effects”, the “Tumor Area” value ([1]; alternate days, 18 doses, control 19.90 ± 7.1) was 0.0 cm^2 and the “Tumor Volume” value ([1]; alternate days, 18 doses, control 20.64 ± 7.01) was 0.0 cm^3. For the same molecule, the “Animal Weight” value ([1]; alternate days, 18 doses, control 28.5) was 29.3 g, the PFU/ml ([2]; 30 μg/ml, 24 h at 37° C.) was 2.1 × 10^5 PFU/ml and the PFU/ml ([2]; 120 μg/ml, 24 h at 37° C.) was 6.5 × 10^5 PFU/ml. For the same molecule, the PFU/ml ([2]; 150 μg/ml, 24 h at 37° C.) was 7.5 × 10^5 PFU/ml, the log reduction at 120 µg/mL ([2]; Vero, 24 h) was 2.04 and the killing at 120 µg/mL ([2]; Vero, 24 h, read-out: % Inactivation) was 99%. It also gave a killing at 30 µg/mL ([2]; Vero, 30 μg/ml, 24 h at 37° C.) of 70.4%, a log reduction at 30 µg/mL ([2]; Vero, 30 μg/ml, 24 h at 37° C.) of 0.53 and a killing at 60 µg/mL ([2]; Vero, 60 μg/ml, 24 h at 37° C.) of 78.9%. For the same molecule, the log reduction at 60 µg/mL ([2]; Vero, 60 μg/ml, 24 h at 37° C.) was 0.68, the killing at 150 µg/mL [2, 14] was 99.9% and the log reduction at 150 µg/mL [2, 14] was 3. For the same molecule, the “toxicity to the MT-4 cells” value [3] was “not toxic to the MT-4 cells”, the “T cell count after treatment” value [4] was 720 and the activity ([5]; 10^-3.0 Molar) was -100%. It also gave an activity at 100 µM ([5]; 10^-4.0 Molar) of 87%, an activity at 10 µM ([5]; 10^-5.0 Molar) of 115% and an activity at 1 µM ([5]; 10^-6.0 Molar) of 82%. It also gave an activity ([6]; 10^-3.0 Molar) of -100%, an activity at 100 µM ([6]; 10^-4.0 Molar) of 65% and an activity at 10 µM ([6]; 10^-5.0 Molar) of 102%. For the same molecule, the activity at 1 µM ([6]; 10^-6.0 Molar) was 106%, the activity at 0.1 µM ([6]; 10^-7.0 Molar) was 101% and the activity ([7]; 10^-3.0 Molar) was -75%. For the same molecule, the activity at 100 µM ([7]; 10^-4.0 Molar) was 66%, the activity at 10 µM ([7]; 10^-5.0 Molar) was 105% and the activity at 1 µM ([7]; 10^-6.0 Molar) was 104%. The activity at 0.1 µM ([7]; 10^-7.0 Molar) was 101%, the activity ([8]; 10^-3.0 Molar) was -97% and the activity at 100 µM ([8]; 10^-4.0 Molar) was 97%. For the same molecule, the activity at 10 µM ([8]; 10^-5.0 Molar) was 99%, the activity at 1 µM ([8]; 10^-6.0 Molar) was 98% and the activity at 0.1 µM ([8]; 10^-7.0 Molar) was 102%. For the same molecule, the activity ([9]; 10^-3.0 Molar) was -75%, the activity at 100 µM ([9]; 10^-4.0 Molar) was 69% and the activity at 10 µM ([9]; 10^-5.0 Molar) was 108%. The activity at 1 µM ([9]; 10^-6.0 Molar) was 111%, the activity at 0.1 µM ([9]; 10^-7.0 Molar) was 110% and the activity ([10]; 10^-3.0 Molar) was -65%. For the same molecule, the activity at 100 µM ([10]; 10^-4.0 Molar) was 83%, the activity at 10 µM ([10]; 10^-5.0 Molar) was 120% and the activity at 1 µM ([10]; 10^-6.0 Molar) was 113%. It also gave an activity at 0.1 µM ([10]; 10^-7.0 Molar) of 106%, an activity at 100 µM ([11]; 10^-4.0 Molar) of 72% and an activity at 10 µM ([11]; 10^-5.0 Molar) of 102%. The activity at 1 µM ([11]; 10^-6.0 Molar) was 102%, the activity at 0.1 µM ([11]; 10^-7.0 Molar) was 99% and the activity ([12]; 10^-3.0 Molar) was -83%. The activity at 100 µM ([12]; 10^-4.0 Molar) was 81%, the activity at 10 µM ([12]; 10^-5.0 Molar) was 101% and the activity at 1 µM ([12]; 10^-6.0 Molar) was 101%. The activity at 0.1 µM ([12]; 10^-7.0 Molar) was 101%, the activity ([13]; 10^-3.0 Molar) was -100% and the activity at 100 µM ([13]; 10^-4.0 Molar) was 127%. It also gave an activity at 10 µM ([13]; 10^-5.0 Molar) of 136%, an activity at 1 µM ([13]; 10^-6.0 Molar) of 144% and an activity at 0.1 µM ([13]; 10^-7.0 Molar) of 145%.
